Results from patent publication US20180118648A1, “5-SUBSTITUTED-5-HYDROXY-5-ARYL-3-OXO-PENTANOATE DERIVATIVES AND THEIR ENANTIOPURE FORMS” (OKINAWA INSTITUTE OF SCIENCE AND TECHNOLOGY SCHOOL …, priority 2015, published 2018).

Row | melting point | SMILES
1 | 133 °C | CCOC(=O)/C=C(\C[C@@](O)(c1cccs1)C(F)(F)F)N[C@H](C)c1ccccc1 [Compound 5ac-1, (S)-ethyl 6,6,6-trifluoro-5-hydroxy-3-(((R)-1-phenylethyl)amino)-5-(thiophen-2-yl)hexa-2-enoate]
2 | 126 °C | CCOC(=O)/C=C(\C[C@@](O)(c1ccccc1)C(F)(F)F)N[C@H](C)c1ccccc1 [Compound 5a-1, (R)-ethyl 6,6,6,-trifluoro-5-hydroxy-5-phenyl-(((R)-1-phenyl)amino)hex-2-enoate]
